{
  "source": "patent US7361665B2",
  "about": "“Inhibitors of c-Jun N-terminal kinases (JNK) and other protein kinases” (Vertex Pharmaceuticals Incorporated, priority 2002, dated 2008)",
  "key": {"human Lck kinase": {"target": "human Lck kinase", "test": "Lck inhibition assay (radioactivity-based assay A or spectrophotometric assay B)", "assay_type": "biochemical", "protocol": "The compounds of this invention can be evaluated as inhibitors of human Lck kinase using either a radioactivity-based assay or spectrophotometric assay.\nThe compounds are assayed as inhibitors of full length bovine thymus Lck kinase (from Upstate Biotechnology, cat. no. 14-106) expressed and purified from baculo viral cells. Lck kinase activity is monitored by following the incorporation of ^33P from ATP into the tyrosine of a random poly Glu-Tyr polymer substrate of composition, Glu:Tyr=4:1 (Sigma, cat. no. P-0275). The following are the final concentrations of the assay components: 0.025 M HEPES, pH 7.6, 10 mM MgCl2, 2 mM DTT, 0.25 mg/ml BSA, 10 μM ATP (1-2 μCi ^33P-ATP per reaction), 5 mg/ml poly Glu-Tyr, and 1-2 units of recombinant human […] kinase. In a typical assay, all the reaction components with the exception of ATP are pre-mixed and aliquoted into assay plate wells. […] The plates are sealed and the amount of radioactivity associated with the filters is quantified on a TopCount scintillation counter. The radioactivity incorporated is plotted as a function of the inhibitor concentration. […]\nIn a typical assay, all the reaction components with the exception of ATP are pre-mixed and aliquoted into assay plate wells. […] The absorbance change at 340 nm with time, the rate of the reaction, is monitored on a molecular devices plate reader. […]"}, "JNK3": {"target": "T1, JNK3 (Homo sapiens, UniProt P53779)", "T1 construct": "One such construct encodes amino acid residues Ser40-Glu402 of JNK3α1 and is preceded by Met and Gly residues; Met-Gly dipeptide (initiation Met plus Gly added for the NcoI site) (N); made in house; host or cells: E. coli BL21 (DE3)", "T1 sequence (P53779 40-402)": "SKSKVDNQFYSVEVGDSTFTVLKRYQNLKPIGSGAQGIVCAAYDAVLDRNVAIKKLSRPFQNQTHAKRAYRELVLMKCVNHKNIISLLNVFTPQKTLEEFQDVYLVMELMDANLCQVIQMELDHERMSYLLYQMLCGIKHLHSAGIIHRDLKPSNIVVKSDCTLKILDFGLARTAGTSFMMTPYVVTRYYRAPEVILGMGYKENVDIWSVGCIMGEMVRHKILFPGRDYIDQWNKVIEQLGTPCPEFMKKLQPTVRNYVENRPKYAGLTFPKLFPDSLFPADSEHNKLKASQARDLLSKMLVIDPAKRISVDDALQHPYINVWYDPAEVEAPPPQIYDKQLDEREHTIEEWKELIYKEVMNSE", "test": "JNK inhibition assay (spectrophotometric coupled-enzyme assay)", "assay_type": "biochemical", "conditions": "activated JNK3 10 nM, 10 μM ATP, 30° C.; read-out: JNK3 Activity (Ki rating)", "source_text": "A BLAST search of the EST database using the published JNK3α1 cDNA as a query identified an EST clone (#632588) that contained the entire coding sequence for human JNK3α1. Polymerase chain reactions (PCR) using pfu polymerase (Strategene) were used to introduce restriction sites into the cDNA for cloning into the pET-15B expression vector at the NcoI and BamHI sites. The protein was expressed in E. coli. Due to the poor solubility of the expressed full-length protein (Met 1-Gln 422), an N-terminally truncated protein starting at Ser residue at position 40 (Ser 40) was produced. This truncation corresponds to Ser 2 of JNK1 and JNK2 proteins, and is preceded by a methionine (initiation) and a glycine residue. The glycine residue was added in order to introduce an NcoI site for cloning into the expression vector. In addition, systematic C-terminal truncations were performed by PCR to identify a construct that give rise to diffraction-quality crystals. One such construct encodes amino acid residues Ser40-Glu402 of JNK3α1 and is preceded by Met and Gly residues.\nFive mg of JNK3 was diluted to 0.5 mg/ml in 50 mM HEPES buffer, pH 7.5, containing 100 mM NaCl, 5 mM DTT, 20 mM MgCl2 and 1 mM ATP. GST-MKK7(DD) was added at a molar ratio of 1:2.5 GST-MKK7:JNK3. After incubation for 30 minutes at 25° C., the reaction mixture was concentrated 5-fold by ultrafiltration in a Centriprep-30 (Amicon, Beverly, Mass.), diluted to 10 ml and an additional 1 mM ATP added. This procedure was repeated three times to remove ADP and replenish ATP. The final addition of ATP was 5 mM and the mixture incubated overnight at 4° C.\nThe activated JNK3/GST-MKK7(DD) reaction mixture was exchanged into 50 mM HEPES buffer, pH 7.5, containing 5 mM DTT and 5% glycerol (w/v) by dialysis or ultrafiltration. The reaction mixture was adjusted to 1.1 M potassium phosphate, pH 7.5, and purified by hydrophobic interaction chromatography (at 25° C.) using a Rainin Hydropore column. […] Activated JNK3 (i.e. doubly phosphorylated JNK3) was stored at −70° C. at 0.25-1 mg/ml.\nCompounds were assayed for the inhibition of JNK3 by a spectrophotometric coupled-enzyme assay. In this assay, a fixed concentration of activated JNK3 (10 nM) was incubated with various concentrations of a potential inhibitor dissolved in DMSO for 10 minutes at 30° C. in a buffer containing 0.1 M HEPES buffer, pH 7.5, containing 10 mM MgCl2, 2.5 mM phosphoenolpyruvate, 200 μM NADH, 150 μg/mL pyruvate kinase, 50 μg/mL lactate dehydrogenase, and 200 μM EGF receptor peptide. The EGF receptor peptide has the sequence […] (SEQ ID NO: 3), and is a phosphoryl acceptor in the JNK3-catalyzed kinase reaction. The reaction was initiated by the addition of 10 μM ATP and the assay plate is inserted into the spectrophotometer's assay plate compartment that was maintained at 30° C. The decrease of absorbance at 340 nm was monitored as a function of time. The rate data as a function of inhibitor concentration was fitted to competitive inhibition kinetic model to determine the Ki.\nThe compound numbers correspond to the compound numbers in Tables 1-3."}},
  "data": [
    {"smiles": "Cc1nc(-c2cccs2)sc1-c1ccnc(Nc2ccc(S(N)(=O)=O)cc2)n1", "note": "[IIc-22]", "values": [
      {"measurement": "Ki", "setting": "human Lck kinase", "value": "< 100", "unit": "nM"},
      {"measurement": "Ki", "setting": "JNK3", "value": "< 100", "unit": "nM"}
    ]}
  ]
}
